Experiments:
[1] = tested on: human fibroblasts (Hs68) or HeLa cells; assay: Delivery of pRL-SV40 luciferase plasmid with inhibitors of the endosomal pathway or at 4° C.; type: cell-based
Protocol: FIG. 1: MPG-mediated gene delivery in the presence of inhibitors of the endosomal pathway. A/ MPG/DNA complexes formed at a charge ratio of 5/1 with 100 ng pRL-SV40 plasmid encoding the reporter gene luciferase were overlaid onto human fibroblasts (Hs68) in the presence of either bafilomycin A (Baf-A: 150 nM), cytochalasin B (Cy-B: 50 μg/ml) or chloroquine (Chi: 100 μM). After 48 hrs cell extracts were prepared and luciferase activity was measured and reported as a function of total protein (black). Similar experiments were performed using a lipid-based delivery system, Lipofectamine™, as a control (white). Experiments in the absence of inhibitors were also performed using an MPG peptide lacking a C-terminal cysteamide group (grey). B/ A 36mer fluorescein labelled oligonucleotide was complexed with MPG at a charge ratio of 5/1. Complexes were then overlaid onto cultured Hela cells in the presence of bafilomycin A (middle panel) or cytochalasin B (bottom panel) and cellular localization of the oligonucleotide was monitored by fluorescence microscopy on living cells 1 hr after transfection. A control experiment with free oligonucleotide is shown in the top panel.
Hs68, Cos-7 and HeLa cell lines were cultured in Dulbecco's Modified Eagle's Medium supplemented with 2 mM glutamine, 1% antibiotics (streptomycin 10 000 μg/ml, penicillin, 10,000 IU/ml) and 10% (w/v) fetal calf serum (FCS) at 37° C. in a humidified atmosphere containing 5% CO2 as described previously (18). For MPG or MPG^ΔNLS-mediated gene delivery, peptide carrier/DNA complexes were formed in DMEM or PBS (500 μl of DMEM containing 100 ng of DNA complexed with MPG at a charge ratio 5:1) and incubated for 30 min at 37° C. Cells grown to 60% confluence were then overlaid with these preformed complexes. […]
For cell cycle-dependent studies, Hs68 fibroblasts were synchronized by serum deprivation for 40 hrs, then restimulated to enter the cycle and grow into early G1 for 4 hrs by addition of fresh DMEM supplemented with 20% FCS, and incubated in the presence of MPG/DNA complexes as described above. Luciferase activity was monitored as described previously (19) and control transfection experiments were performed using Lipofectamine™. […]
A plasmid encoding the reporter gene luciferase, pRL-SV40, was associated with MPG carrier at a charge ratio of 5:1 (MPG/DNA) and overlaid onto cultured human fibroblasts (Hs68) or HeLa cells in the presence of either bafilomycin A (150 nM), chloroquine (100 μM) or cytochalasin B (50 μg/ml). Transfection efficiency was monitored 30 hrs after transfection and Lipofectamine™ was used as a standard control method for transfection. […]

[2] = tested on: mammalian cells; conditions: single- and double-stranded oligonucleotides; cited from earlier work

Sequence: GALFLGFLGAAGSTMGAWSQPKKKRKV (carrier peptide) [MPG, bipartite amphipathic peptide derived from fusion peptide domain of HIV-1 gp41 and NLS of SV40 large T antigen]
- localization of fluorescently labelled oligonucleotide in presence of inhibitors ([1]; 36mer fluorescein oligonucleotide, charge ratio 5/1, Hela cells, after one hour): localized to the nucleus and to cytoplasm of the cells
- increase of efficiency by chloroquine ([1]; chloroquine 100 μM, pRL-SV40): 10%
- transfection efficiency in presence of bafilomycin A or cytochalasin B ([1]; pRL-SV40, charge ratio 5:1, bafilomycin A 150 nM, cytochalasin B 50 μg/ml): not affected
- reduction of transfection efficiency at 4° C. ([1]; transfection performed at 4° C.): 12 fold
- time to deliver oligonucleotides into mammalian cells [2]: < 1 h
